Test results: US20120202856A1, “SUBSTITUTED BENZIMDAZOLE DERIVATIVES USEFUL AS TRPM8 RECEPTOR MODULATORS” (priority 2011, published 2012)
“And” between values parts separate entries of the source, which are not always exact repeats. Identical values can stand only once. Counter-ions that a name gives are not always drawn.

Molecular target: T1, canine TRPM8 (Canis lupus familiaris, UniProt Q1A7N1)
T1 construct: expressed in transfected cells
Test: In Vitro Canine TRPM8 Functional Assay (intracellular Ca2+ fluorescence, icilin activation, HEK293 cells)
Assay type: cell-based
Details: for IC50: HEK293 cells expressing canine TRPM8, icilin activation, individually measured values (batches/salt forms), read-out: IC50 (nM), in vitro TRP M8 Activity; for inhibition at 0.2 µM: HEK293, 0.2 μM test compound, individually measured values, read-out: % Inh (%) @0.2 μM, in vitro TRP M8 Activity
Protocol: The changes in fluorescent signal were monitored by a fluorescence plate reader, either a FLIPR™ (Molecular Devices) or FDSS (Hamamatsu). […] Cells were maintained in 5% CO2 at 37° C. At 24 hr prior to assay, cells were seeded in black wall, clear-base poly-D-lysine coated 384-well plates (BD Biosciences, NJ, USA) at a density of 5,000 cells per well in culture medium and grown overnight in 5% CO2 at 37° C. On assay day, growth media was removed, and cells were loaded with Calcium 3 Dye (Molecular Devices) for 35 min at 37° C., under 5% CO2 and then incubated for 25 min at room temperature and atmosphere. Subsequently, cells were tested for agonist-induced increases in intracellular Ca^2+ levels using FLIPR™ or FDSS. […] Maximal fluorescence intensity (FI) achieved upon addition of icilin was exported from the FLIPR™ or FDSS software and further analyzed using GraphPad Prism 3.02 (Graph Pad Software Inc., CA, U.S.A.). Basal FI was subtracted prior to normalizing data to percent of maximal response. Curves were generated using the average of quadruplicate wells for each data point using nonlinear regression of either sigmoidal dose response or sigmoidal dose response (variable slope). Finally, IC50 values were calculated with the best-fit curve determined by GraphPad Prism

T1 sequence (Q1A7N1 1-1104): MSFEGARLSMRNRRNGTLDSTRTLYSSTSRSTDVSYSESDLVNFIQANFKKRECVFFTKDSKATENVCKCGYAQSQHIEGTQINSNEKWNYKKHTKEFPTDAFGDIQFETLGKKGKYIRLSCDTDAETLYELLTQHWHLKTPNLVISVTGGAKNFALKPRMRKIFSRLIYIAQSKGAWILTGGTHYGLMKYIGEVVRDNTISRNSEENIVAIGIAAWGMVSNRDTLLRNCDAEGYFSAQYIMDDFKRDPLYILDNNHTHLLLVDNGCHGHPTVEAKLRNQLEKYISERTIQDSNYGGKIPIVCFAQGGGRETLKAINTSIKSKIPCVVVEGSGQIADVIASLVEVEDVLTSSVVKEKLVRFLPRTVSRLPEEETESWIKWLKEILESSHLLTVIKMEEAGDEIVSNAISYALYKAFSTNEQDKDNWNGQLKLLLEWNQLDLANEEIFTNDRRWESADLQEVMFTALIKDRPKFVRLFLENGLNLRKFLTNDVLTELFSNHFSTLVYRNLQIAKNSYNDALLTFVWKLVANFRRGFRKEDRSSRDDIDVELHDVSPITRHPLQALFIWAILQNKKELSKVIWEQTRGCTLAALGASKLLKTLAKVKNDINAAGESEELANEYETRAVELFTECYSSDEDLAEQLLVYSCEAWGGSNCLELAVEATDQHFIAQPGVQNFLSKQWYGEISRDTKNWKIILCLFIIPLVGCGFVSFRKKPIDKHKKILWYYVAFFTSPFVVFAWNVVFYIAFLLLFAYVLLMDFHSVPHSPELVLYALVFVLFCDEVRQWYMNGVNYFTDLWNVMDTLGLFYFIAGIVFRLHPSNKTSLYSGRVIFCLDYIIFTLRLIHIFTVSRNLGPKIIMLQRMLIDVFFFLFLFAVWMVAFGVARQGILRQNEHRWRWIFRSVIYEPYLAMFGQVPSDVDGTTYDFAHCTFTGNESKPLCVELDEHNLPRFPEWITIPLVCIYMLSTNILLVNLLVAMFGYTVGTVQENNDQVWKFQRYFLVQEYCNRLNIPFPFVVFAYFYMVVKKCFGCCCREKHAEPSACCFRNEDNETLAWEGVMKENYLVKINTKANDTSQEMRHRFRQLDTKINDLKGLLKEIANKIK

| Compound | IC50 | inhibition at 0.2 µM [%] |
| --- | --- | --- |
| CC(C)c1cc(-c2nc3cc(-c4ccccc4)ccc3[nH]2)on1 [Compound 1, 2-(3-Isopropylisoxazol-5-yl)-5-phenyl-1H-benzimidazole sodium salt] | 111 nM | – |
| COc1ccccc1-c1ccc2[nH]c(-c3cc(C(C)C)no3)nc2c1 [Compound 2, 2-(3-Isopropylisoxazol-5-yl)-5-(2-methoxyphenyl)-1H-benzimidazole sodium salt] | 16 nM | – |
| CC(C)c1cc(-c2nc3cc(-c4ccccc4OC(F)(F)F)ccc3[nH]2)on1 [Compound 5, 2-(3-Isopropylisoxazol-5-yl)-5-(2-trifluoromethoxyphenyl)-1H-benzimidazole sodium salt] | 22.5 nM | – |
| CCOc1ccccc1-c1ccc2[nH]c(-c3cc(C(C)C)no3)nc2c1 [Compound 6, 2-(3-Isopropylisoxazol-5-yl)-5-(2-ethoxyphenyl)-1H-benzimidazole sodium salt] | 64.4 nM | – |
| CC(C)c1cc(-c2nc3cc(-c4cccc(C(F)(F)F)c4)ccc3[nH]2)on1 [Compound 7, 2-(3-Isopropylisoxazol-5-yl)-5-(3-trifluoromethylphenyl)-1H-benzimidazole sodium salt] | – | 10 |
| COc1ccccc1-c1ccc2[nH]c(-c3cc(C(C)(C)C)no3)nc2c1 [Compound 8, 2-(3-tert-Butylisoxazol-5-yl)-5-(2-methoxyphenyl)-1H-benzimidazole sodium salt] | 11.1 nM and 8 nM | – |
| Cn1nc(C(C)(C)C)cc1-c1nc2cc(-c3ccccc3OC(F)(F)F)ccc2[nH]1 [Compound 14, 2-(5-tert-Butyl-2-methyl-2H-pyrazol-3-yl)-5-(2-trifluoromethoxyphenyl)-1H-benzimidazole sodium salt] | 44 nM | – |
| COc1ccccc1-c1ccc2[nH]c(-c3cc(C4CC4)no3)nc2c1 [Compound 15, 2-(3-cyclopropylisoxazol-5-yl)-5-(2-methoxyphenyl)-1H-benzimidazole sodium salt] | 70 nM | – |
| FC(F)(F)c1ccccc1-c1ccc2[nH]c(-c3cc(C4CC4)no3)nc2c1 [Compound 16, 2-(3-cyclopropylisoxazol-5-yl)-5-(2-trifluoromethylphenyl)-1H-benzimidazole sodium salt] | 58 nM | – |
| FC(F)(F)Oc1ccccc1-c1ccc2[nH]c(-c3cc(C4CC4)no3)nc2c1 [Compound 17, 2-(3-cyclopropylisoxazol-5-yl)-5-(2-trifluoromethoxyphenyl)-1H-benzimidazole sodium salt] | 52 nM | – |
| CCCc1cc(-c2nc3ccc(-c4ccccc4C(F)(F)F)cc3[nH]2)on1 [Compound 18, 2-(3-Propylisoxazol-5-yl)-6-(2-trifluoromethylphenyl)-1H-benzimidazole hydrochloride] | 27 nM | – |
| CCCc1cc(-c2nc3ccc(-c4ccccc4OC(F)(F)F)cc3[nH]2)on1 [Compound 19, 2-(3-Propylisoxazol-5-yl)-6-(2-trifluoromethoxyphenyl)-1H-benzimidazole hydrochloride] | 18 nM | – |
| CC(C)(C)Cc1cc(-c2nc3ccc(-c4ccccc4C(F)(F)F)cc3[nH]2)on1 [Compound 20, 2-[3-(2,2-Dimethylpropyl)isoxazol-5-yl]-6-(2-trifluoromethylphenyl)-1H-benzimidazole hydrochloride] | 19 nM | – |
| CC(C)(C)Cc1cc(-c2nc3ccc(-c4ccccc4OC(F)(F)F)cc3[nH]2)on1 [Compound 21, 2-[3-(2,2-Dimethylpropyl)-isoxazol-5-yl]-6-(2-trifluoromethoxyphenyl)-1H-benzimidazole hydrochloride] | 29 nM | – |
| CC(C)Cc1cc(-c2nc3cc(-c4ccccc4C(F)(F)F)ccc3[nH]2)on1 [Compound 22, 2-(3-Isobutylisoxazol-5-yl)-5-(2-trifluoromethylphenyl)-1H-benzimidazole hydrochloride] | 32 nM | – |
| CC(C)Cc1cc(-c2nc3ccc(-c4ccccc4OC(F)(F)F)cc3[nH]2)on1 [Compound 23, 2-(3-Isobutylisoxazol-5-yl)-6-(2-trifluoromethoxyphenyl)-1H-benzimidazole hydrochloride] | 30 nM | – |
| FC(F)(F)c1ccccc1-c1ccc2nc(-c3cc(C4CCCCC4)no3)[nH]c2c1 [Compound 24, 2-(3-Cyclohexylisoxazol-5-yl)-6-(2-trifluoromethylphenyl)-1H-benzimidazole hydrochloride] | – | 63 |
| FC(F)(F)Oc1ccccc1-c1ccc2nc(-c3cc(C4CCCCC4)no3)[nH]c2c1 [Compound 25, 2-(3-Cyclohexylisoxazol-5-yl)-6-(2-trifluoromethoxyphenyl)-1H-benzimidazole hydrochloride] | – | 63 |
| CCC(CC)c1cc(-c2nc3ccc(-c4ccccc4C(F)(F)F)cc3[nH]2)on1 [Compound 26, 2-[3-(1-Ethylpropyl)-isoxazol-5-yl]-6-(2-trifluoromethylphenyl)-1H-benzimidazole hydrochloride] | 39 nM | – |
| CCC(CC)c1cc(-c2nc3ccc(-c4ccccc4OC(F)(F)F)cc3[nH]2)on1 [Compound 27, 2-[3-(1-Ethylpropyl)-isoxazol-5-yl]-6-(2-trifluoromethoxyphenyl)-1H-benzimidazole hydrochloride] | 46 nM | – |
| Cn1nc2c(c1-c1nc3cc(-c4ccccc4C(F)(F)F)ccc3[nH]1)CCCC2(C)C [Compound 30, 2,7,7-Trimethyl-3-[5-(2-trifluoromethylphenyl)-1H-benzimidazol-2-yl]-4,5,6,7-tetrahydro-2H-indazole sodium salt] | 36 nM | – |
| Cn1nc2c(c1-c1nc3cc(-c4ccccc4OC(F)(F)F)ccc3[nH]1)CCCC2(C)C [Compound 31, 2,7,7-Trimethyl-3-[5-(2-trifluoromethoxyphenyl)-1H-benzimidazol-2-yl]-4,5,6,7-tetrahydro-2H-indazole sodium salt] | 84 nM | – |
| Cn1nc2c(c1-c1nc3cc(-c4ccccc4Cl)ccc3[nH]1)CCCC2(C)C [Compound 32, 3-[5-(2-Chlorophenyl)-1H-benzimidazol-2-yl]-2,7,7-trimethyl-4,5,6,7-tetrahydro-2H-indazole sodium salt] | 21 nM | – |
| FC(F)(F)c1ccccc1-c1ccc2[nH]c(-c3cc(Cl)no3)nc2c1 [Compound 33, 2-(3-Chloroisoxazol-5-yl)-5-(2-trifluoromethylphenyl)-1H-benzimidazole sodium salt] | 145 nM | – |

The remaining lines, values ahead:

| IC50 | inhibition at 0.2 µM [%] | Compound |
| --- | --- | --- |
| 72.9 nM | – | FC(F)(F)Oc1ccccc1-c1ccc2[nH]c(-c3cc(Cl)no3)nc2c1 [Compound 34, 2-(3-Chloroisoxazol-5-yl)-5-(2-trifluoromethoxyphenyl)-1H-benzimidazole sodium salt] |
| 55.9 nM | – | Cn1nc(C2CCC2)cc1-c1nc2cc(-c3ccccc3C(F)(F)F)ccc2[nH]1 [Compound 37, 2-(5-Cyclobutyl-2-methyl-2H-pyrazol-3-yl)-5-(2-trifluoromethyl-phenyl)-1H-benzimidazole sodium salt] |
| 55.8 nM | – | Cn1nc(C2CCC2)cc1-c1nc2cc(-c3ccccc3OC(F)(F)F)ccc2[nH]1 [Compound 38, 2-(5-Cyclobutyl-2-methyl-2H-pyrazol-3-yl)-5-(2-trifluoromethoxy-phenyl)-1H-benzimidazole sodium salt] |
| 20 nM | – | Cn1nc(C2CCC2)cc1-c1nc2cc(-c3ccccc3Cl)ccc2[nH]1 [Compound 39, 2-(5-Cyclobutyl-2-methyl-2H-pyrazol-3-yl)-5-(2-chlorophenyl)-1H-benzimidazole sodium salt] |
| 81.5 nM | – | Cn1nc(C(F)(F)F)cc1-c1nc2cc(-c3ccccc3C(F)(F)F)ccc2[nH]1 [Compound 40, 2-(5-Trifluoromethyl-2-methyl-2H-pyrazol-3-yl)-5-(2-trifluoromethylphenyl)-1H-benzimidazole sodium salt] |
| 133 nM | – | Cn1nc(C(F)(F)F)cc1-c1nc2cc(-c3ccccc3OC(F)(F)F)ccc2[nH]1 [Compound 41, 2-(5-Trifluoromethyl-2-methyl-2H-pyrazol-3-yl)-5-(2-trifluoromethoxyphenyl)-1H-benzimidazole sodium salt] |
| 151 nM | – | FC(F)(F)c1ccccc1-c1ccc2[nH]c(-c3cc(Br)no3)nc2c1 [Compound 42, 2-(3-Bromoisoxazol-5-yl)-5-(2-trifluoromethylphenyl)-1H-benzimidazole sodium salt] |
| 94.6 nM | – | FC(F)(F)Oc1ccccc1-c1ccc2[nH]c(-c3cc(Br)no3)nc2c1 [Compound 43, 2-(3-Bromoisoxazol-5-yl)-5-(2-trifluoromethoxyphenyl)-1H-benzimidazole sodium salt] |
| 51.2 nM | – | CCn1nc(C(C)(C)C)cc1-c1nc2cc(-c3ccccc3OC(F)(F)F)ccc2[nH]1 [Compound 45, 2-(5-tert-butyl-2-ethyl-2H-pyrazol-3-yl)-5-(2-trifluoromethoxyphenyl)-1H-benzimidazole sodium salt] |
| 21 nM | – | CC(C)n1nc(C(C)(C)C)cc1-c1nc2cc(-c3ccccc3C(F)(F)F)ccc2[nH]1 [Compound 46, 2-(5-tert-Butyl-2-isopropyl-2H-pyrazol-3-yl)-5-(2-trifluoromethylphenyl)-1H-benzimidazole sodium salt] |
| 49.6 nM | – | CC(C)n1nc(C(C)(C)C)cc1-c1nc2cc(-c3ccccc3OC(F)(F)F)ccc2[nH]1 [Compound 47, 2-(5-tert-Butyl-2-isopropyl-2H-pyrazol-3-yl)-5-(2-trifluoromethoxyphenyl)-1H-benzimidazole sodium salt] |
